The source of these data is patent publication US20100323990A1, “SHIP 1 MODULATOR PRODRUGS” (THE UNIVERSITY OF BRITISH COLUMBIA, priority 2006, published 2010).

In one test the test system is SHIP enzyme. The experiment in a line: In vitro SHIP enzyme assay (Assay 1), phosphate release by Malachite Green. Format: biochemical. Conditions: 10 ng enzyme/well, 100 μM inositol-1,3,4,5-tetrakisphosphate. As for the experimental part:
(§1) Assay 1) In vitro testing in a SHIP enzyme assay. Test compounds were dissolved in a suitable solvent (e.g. EtOH, DMSO and others) and diluted into aqueous buffer (20 mM Tris HCl, pH 7.5 and 10 mM MgCl2). SHIP enzyme assays were performed in 96-well microtitre plates with 10 ng of enzyme/well in a total volume of 25 μL of 20 mM Tris HCl, pH 7.5 and 10 mM MgCl2. SHIP enzyme was incubated with test extracts (provided in solvent) or vehicle for 15 min at 23° C. before the addition of 100 μM inositol-1,3,4,5-tetrakisphosphate (Echelon Biosciences Inc, Salt Lake City, Utah). After 20 min at 37° C. and the amount of inorganic phosphate released assessed by the addition of Malachite Green reagent and absorbance measurement at 650 nm. Assay 2) Macrophage TNF-α production. J774.1a macrophage cells were treated with 10 μg/mL of test compound dissolved in solvent (e.g. cyclodextran) for 40 minutes prior to the addition of 100 ng/mL LPS. Culture supernatants were collected after 2 hr and 5 hr for TNF-α determination by ELISA. Assay 3) Macrophage TNF-α NO assay. J774.1a macrophage cells were treated with 10 μg/ml of test compound dissolved in solvent for 40 minutes prior to the addition of LPS. Culture supernatants were collected after 24 hr. for determination of NO concentration using the Griess reagent. Assay 4) Stimulation of mast cells by FcεRI crosslinking. Mast cells were pre-loaded overnight in BMMC medium lacking IL-3 with 0.1 μg/ml anti-DNP IgE (SPE-7, Sigma, Oakville, Ont). For calcium flux measurements, cells were incubated with 2 μM fura 2-acetoxymethyl ester (Molecular Probes, Eugene, Oreg.) in Tyrode's buffer at 23° C. for 45 min. Cells were then washed and incubated in the presence of the test compound 30 min prior to stimulation with the indicated concentration of DNP-human serum albumin (DNP-HSA). Calcium influx was monitored by spectrofluorometry as described previously. For analysis of intracellular signaling, cells were pre-loaded with anti-DNP IgE as above, pre-treated with the test compound for 30 min at 37° C. and stimulated with 20 ng/ml DNP-HSA for 5 min. Total cell lysates were then prepared and analyzed for phospho-PKB, phospho-p38^MAPK, phospho-MAPK, Grb-2 (Cell Signalling, Mississauga, Ont) and SHIP^6 by immunoblot analysis. Assay 5) Mouse acute cutaneous anaphylaxis model. 6-8 week old CD1 mice (University of British Columbia Animal Facility, Vancouver, BC) were sensitized to the hapten DNP by cutaneous application of 25 μL of 0.5% dinitrofluorobenzene (DNFB) (Sigma, Oakville, Ont) in acetone to the shaved abdomen of mice for two consecutive days. 24 hrs later, test substances (dissolved in 10 μL of 1:2 DMSO:MeOH) were painted on the right ear while the left ear received vehicle control. 30 min after drug application, DNFB was applied to both ears to induce mast cell degranulation. A 6 mm punch was taken from the ear and immediately frozen on dry ice for subsequent determination of neutrophil myeloperoxidase (MPO) activity. Assay 6) Mouse endotoxemia model. 6-8 week old C57B16 mice (VCHRI Mammalian Model of Human Disease Core Facility, Vancouver, BC) were orally administered the test compound 30 min prior to an IP injection of 2 mg/kg of LPS (E. Coli serotype 0111:B4, Sigma, Oakville, Ont). Blood was drawn 2 hrs later for determination of plasma TNFα by ELISA. Assay 7) In vitro Mulitple Myeloma (MM) assay. The ability of SHIP activators to reduce tumor cell survival was assessed in MM cell lines treated with the test compound. The lines OPM1, OPM2, MM.1S and RPMI 8226 were plated at a density of 1×10^5 cells/mL in 200 μL of medium with various concentrations of the test compound, and viable cell numbers were determined on day 3 and day 5 by trypan blue exclusion. The lines RPMI 8226 and U266 were plated at a density of 1×10^6 cells/mL in 250 μL of medium with various concentrations of the test compound. At day 4, the medium of each culture was replaced by fresh medium containing the same concentration of test compound. […]

For another test, the system named is MM cell lines. The experiment in a line: In vitro Multiple Myeloma (MM) assay (Assay 7). In kind it is cell-based. Conditions: viable cell number by trypan blue; [3H]-thymidine. As for the experimental part: as §1
Test [1] has as its system J774.1a macrophage cells. Nature of the test: Macrophage TNF-α production (Assay 2). Format: cell-based. Conditions: 10 μg/mL test compound, 100 ng/mL LPS, supernatants after 2 hr and 5 hr. As for the experimental part:
as §1

For test [2], the system named is J774.1a macrophage cells. The experiment in a line: Macrophage TNF-α NO assay (Assay 3), Griess reagent. Conditions: 10 μg/ml test compound, LPS, supernatants after 24 hr. Format: cell-based. How it is done:
as §1
(Nitrite, measured by Griess reagent, commonly stands in for NO production.)
Also: key: a ‘+’ indicates a positive result for desired activity; a ‘−’ indicates a negative result for desired activity.

On to `Cc1cc(O)c(O)c2c1[C@@]1(C)CCC3C(C)(C)CCC[C@]3(C)[C@H]1C2` (stereo partly shown), for which the “Assay 1: SHIP enzyme assay, desired activity” value (“Assay 1: SHIP enzyme assay” for short) in the test with SHIP enzyme is on record as “+”.

`CC1(C)CCC[C@]2(C)[C@H]3Cc4cc(O)ccc4[C@]3(C)CC[C@@H]12` [Compound 121]: the “Assay 7: In vitro Multiple Myeloma (MM) assay, desired activity” value (“Assay 7: In vitro Multiple Myeloma” for short) in the test with MM cell lines was “+”. Also, the “Assay 2: Macrophage TNF-α production, desired activity” value (“Assay 2: Macrophage TNF-α production” for short) with J774.1a macrophage cells [1] is listed as “+”. For the same compound, in the test with J774.1a macrophage cells [2], the “Assay 3: Macrophage NO assay, desired activity” value (“Assay 3: Macrophage NO assay” for short) was “+”.

For `COc1cc(C)c2c(c1O)C[C@@H]1[C@@]3(C)CCCC(C)(C)[C@@H]3CC[C@@]21C` [Compound 129], in the test with J774.1a macrophage cells [1], the “Assay 2: Macrophage TNF-α production” value was “−”. The “Assay 3: Macrophage NO assay” value with J774.1a macrophage cells [2] is listed as “+”.

For `COC(=O)c1cc(O)c(O)c2c1[C@]1(C)CCC3C(C)(C)CCC[C@]3(C)[C@H]1C2` (stereo partly shown), the “Assay 1: SHIP enzyme assay” value with SHIP enzyme was “+”. Moreover, the “Assay 3: Macrophage NO assay” value in the test on J774.1a macrophage cells [2] is listed as “+”.

Turning to `CCc1cc(O)c(O)c2c1[C@]1(C)CCC3C(C)(C)CCC[C@]3(C)[C@H]1C2` (stereo partly shown) [Compound 18A], the “Assay 2: Macrophage TNF-α production” value with J774.1a macrophage cells [1] is on record as “+”. For the same compound, the “Assay 1: SHIP enzyme assay” value with SHIP enzyme is on record as “+”. In the test on J774.1a macrophage cells [2], the “Assay 3: Macrophage NO assay” value is given as “+”.

For `Cc1cc(OC(=O)C(N)Cc2cnc[nH]2)cc2c1[C@]1(C)CCC3C(C)(C)CCC[C@]3(C)[C@H]1C2` (stereo partly shown) [Compound 123], in the test with J774.1a macrophage cells [1], the “Assay 2: Macrophage TNF-α production” value is “+”. Further, the “Assay 3: Macrophage NO assay” value in the test on J774.1a macrophage cells [2] is on record as “+”.

Consider `COc1ccc2c(c1O)C[C@@H]1[C@@]3(C)CCCC(C)(C)[C@@H]3CC[C@@]21C` [Compound 118], for which the “Assay 7: In vitro Multiple Myeloma” value with MM cell lines is “+”. In addition, the “Assay 2: Macrophage TNF-α production” value in the test on J774.1a macrophage cells [1] was “−”. Further, the “Assay 3: Macrophage NO assay” value with J774.1a macrophage cells [2] is given as “+”.

With `COC(=O)c1cc(O)c(O)c2c1[C@]1(C)CCC3C(C)(C)CCC[C@]3(C)[C@@H]1C2` (stereo partly shown), the “Assay 1: SHIP enzyme assay” value with SHIP enzyme is given as “+”. In addition, the “Assay 3: Macrophage NO assay” value with J774.1a macrophage cells [2] is “+”.

`Cc1cc(OP(=O)(O)O)cc2c1[C@]1(C)CCC3C(C)(C)CCC[C@]3(C)[C@H]1C2` (stereo partly shown) [Compound 109]: the “Assay 7: In vitro Multiple Myeloma” value in the test on MM cell lines is “+”. In addition, the “Assay 2: Macrophage TNF-α production” value in the test on J774.1a macrophage cells [1] is recorded as “−”. Moreover, the “Assay 3: Macrophage NO assay” value in the test on J774.1a macrophage cells [2] is “+”.

As to `Cc1cc(O)c2c(c1)C[C@@H]1[C@@]3(C)CCCC(C)(C)[C@@H]3CC[C@@]21C` [Compound 122], the “Assay 7: In vitro Multiple Myeloma” value with MM cell lines is “+”. In addition, the “Assay 2: Macrophage TNF-α production” value in the test with J774.1a macrophage cells [1] is recorded as “−”. In the test with J774.1a macrophage cells [2], the “Assay 3: Macrophage NO assay” value is listed as “+”.

Take `CC1(C)CCC[C@]2(C)[C@H]3Cc4cc(O)cc(O)c4[C@]3(C)CC[C@@H]12` [Compound 115]: the “Assay 7: In vitro Multiple Myeloma” value with MM cell lines is “+”.

For the compound `CC(=O)Oc1cc(C)c2c(c1)C[C@H]1[C@@]2(C)CCC2C(C)(C)CCC[C@@]21C` (stereo partly shown) [Compound 102], the “Assay 2: Macrophage TNF-α production” value in the test on J774.1a macrophage cells [1] is on record as “+”. The “Assay 3: Macrophage NO assay” value with J774.1a macrophage cells [2] was “+”.

In the case of `COC(=O)c1cc(O)c(O)c2c1[C@@]1(C)CCC3C(C)(C)CCC[C@]3(C)[C@H]1C2` (stereo partly shown), the “Assay 1: SHIP enzyme assay” value in the test with SHIP enzyme is “+”. The “Assay 3: Macrophage NO assay” value in the test on J774.1a macrophage cells [2] is recorded as “+”.

In the case of `Cc1cc2c(cc1O)C[C@@H]1[C@@]3(C)CCCC(C)(C)[C@@H]3CC[C@@]21C` [Compound 101], the “Assay 7: In vitro Multiple Myeloma” value in the test on MM cell lines is reported as “+”. Also, in the test on J774.1a macrophage cells [1], the “Assay 2: Macrophage TNF-α production” value is reported as “+”. The “Assay 3: Macrophage NO assay” value in the test with J774.1a macrophage cells [2] is “+”.

Turning to `COc1cc(O)cc2c1[C@]1(C)CC[C@H]3C(C)(C)CCC[C@]3(C)[C@H]1C2` [Compound 117], the “Assay 7: In vitro Multiple Myeloma” value in the test on MM cell lines is “+”. Also, the “Assay 2: Macrophage TNF-α production” value in the test with J774.1a macrophage cells [1] is on record as “+”. In the test on J774.1a macrophage cells [2], the “Assay 3: Macrophage NO assay” value was “+”.

In the case of `Cc1cc(OC(=O)C(N)CCCNC(=N)N)cc2c1[C@]1(C)CCC3C(C)(C)CCC[C@]3(C)[C@H]1C2` (stereo partly shown) [Compound 105], the “Assay 2: Macrophage TNF-α production” value with J774.1a macrophage cells [1] is on record as “+”. Besides, the “Assay 3: Macrophage NO assay” value with J774.1a macrophage cells [2] is on record as “+”.
